The target in the test is Eukaryotic translation initiation factor 4E (Homo sapiens, UniProt P06730). In words: Binding affinity to recombinant human 10His-tagged eIF4E expressed in Escherichia coli BL21 (DE3) cells assessed as dissociation constant by surface plasmon resonance analysis. (In general: In SPR one partner is held on a chip, and binding of the other changes the refractive index at the surface.)

Bridge positions count the residues as written; N and C are the ends. Peptide text beside a SMILES is read from it.

Chain of Eukaryotic translation initiation factor 4E (P06730 whole entry): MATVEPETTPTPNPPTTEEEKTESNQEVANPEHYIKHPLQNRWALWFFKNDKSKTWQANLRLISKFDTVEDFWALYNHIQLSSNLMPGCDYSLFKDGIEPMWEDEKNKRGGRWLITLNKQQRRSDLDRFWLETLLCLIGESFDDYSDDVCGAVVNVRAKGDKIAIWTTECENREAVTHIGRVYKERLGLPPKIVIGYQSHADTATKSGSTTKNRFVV

Usually koff stands for the first-order rate constant of dissociation. Consider `CC[C@H](C)[C@H](NC(=O)[C@H](CCCNC(=N)N)NC(C)=O)C(=O)N[C@H](C(=O)N[C@@H](Cc1ccc(O)cc1)C(=O)N[C@@H](CC(=O)O)C(=O)N[C@@H](CCCNC(=N)N)C(=O)N[C@H]1CCC(=O)NCCCC[C@@H](C(=O)N[C@@H](CS)C(=O)N[C@@H](CCCNC(=N)N)C(N)=O)NC(=O)[C@H](CCSC)NC(=O)[C@H](CC(C)C)NC(=O)[C@H](Cc2ccccc2)NC1=O)[C@@H](C)CC` (Ac-RIIYDREFLMKCR-NH2; lactam 7-11), for which the koff amounted to 0.0069 s⁻¹.
Under `CC[C@H](C)[C@H](NC(=O)[C@H](CCCNC(=N)N)NC(C)=O)C(=O)N[C@H](C(=O)N[C@@H](Cc1ccc(O)cc1)C(=O)N[C@@H](CC(=O)O)C(=O)N[C@@H](CCCNC(=N)N)C(=O)N[C@H]1CCCCNC(=O)CC[C@@H](C(=O)N[C@@H](CS)C(=O)N[C@@H](CCCNC(=N)N)C(N)=O)NC(=O)[C@H](CCSC)NC(=O)[C@H](CC(C)C)NC(=O)[C@H](Cc2ccccc2)NC1=O)[C@@H](C)CC` (Ac-RIIYDRKFLMECR-NH2; lactam 7-11) stands 0.0042 s⁻¹.
